Laboratory results: patent publication US20020032316A1, “Hapten-carrier conjugates for use in drug-abuse therapy and methods for preparation of same” (priority 1995, published 2002)
Read-outs that look alike come from different tables or passages of the source.

Tests used:
[1] = cited from earlier work
[2] = tested on: antibodies in the rat sera binding to PS-5.4 HEL; conditions: sera of rats immunized with cocaine-rCTB conjugate
anti-cocaine antisera = assay: Specificity competition ELISA: drugs inhibiting binding of antibodies to cocaine-HEL; conditions: pool of antisera of mice immunized with cocaine-CTB PS-5.53; varying concentrations
rats = assay: Discrimination of cocaine from saline, 2-lever procedure; type: in vivo; conditions: Rattus norvegicus, ip; rats trained on 10 mg/kg cocaine i.p., cumulative dosing; read-out: ED50±95% C.I. for cocaine-appropriate responses
Description: After cocaine injections are given, the animals are required to press one of the levers (drug-appropriate lever) 10 times (FR 10) to obtain a food pellet; upon saline injections, they are required to press the other lever (saline-appropriate lever) 10 times to obtain a food pellet. When animals have learned to discriminate cocaine from saline, at least 90% of the total responses are made on the appropriate lever for several consecutive days. In order to incorporate a cumulative dosing procedure during later substitution test sessions, training sessions are made up of multiple components, each lasting for 10 min or until 10 FRs are completed, whichever occurred first.
Following training, substitution test sessions with different doses of cocaine (0.3-17.8 mg/kg) are conducted twice weekly, with training sessions on intervening days. Drug substitution test sessions consisted of four 10 min components, each preceded by a 15 min time-out period. During substitution tests, completion of 10 responses on either lever produce a food pellet. Incremental doses of cocaine are injected at the beginning of each of the 4 time-out periods. Overlapping ranges of cumulative doses are studied on different test days, permitting a seven-point cumulative dose-response curve to be determined in a single week. […]

mice = conditions: for total levels of cocaine in the brains of control mice: mouse, in vivo
[3] = cited from earlier work; for peak plasma concentration: in vivo; for plasma half life: Henningfield (1995)
[4] = Cocaine LD50 and time-to-death in immunized and naive mice; conditions: BALB/c, mouse, in vivo
Procedure: In these experiments, cocaine-immunized and control carrier-immunized mice are injected i.v. with cocaine at doses around the previously defined LD50. Ten mice are used at each point, and the data is analyzed using a Cochran-Mantel-Haenzel Chi-squared test.
In addition, a failure time model is used to analyze the time-to-death induced by cocaine. The extent to which the anti-cocaine antibodies increase both (a) the dose of cocaine required for lethality and (b) the time-to-death are measures of efficacy in this model. These provide a rapid and rigorous test of the in vivo efficacy of the antibodies.
The efficacy of therapeutic vaccination against cocaine was assessed by determining the lethal dose of cocaine (LD50) in immunized and naive animals. […] Each of the mice was bled at day 34 and serum antibody titers and competition with cocaine were assessed. […] For the LD50 experiment, 4-6 mice were used per group and each group was carefully matched for antibody titer and apparent affinity for free cocaine.

[5] = tested on: antibodies in the sera binding to PS-55 HEL; assay: Competition ELISA with free nicotine or cotinine; set-up: species or system mouse; conditions: sera of mice injected with PS-55 BSA
Procedure: To determine whether the induced antibodies are capable of recognizing the free nicotine molecule, a competition ELISA was performed. In this assay, free nicotine competes with PS-55 HEL coated to ELISA plates for the binding of antibodies in the sera. If the antibodies that have a high affinity for nicotine comprise most of the antibodies binding to the PS-55 HEL, then low concentrations of nicotine are capable of effectively inhibiting the antibody binding. For 3 out of 4 mice described above which were injected with PS-55 BSA, antibody binding to PS-55 HEL was inhibited by free nicotine (FIG. 25). Note that the presence of antibody specific for the conjugate alone would not be expected to interfere with the action of the anti-nicotine antibody.

[6] = in vivo; cited from earlier work
[7] = pre-incubation with 50-fold excess unlabeled nicotine
Procedure: Immune sera from the above experiment was incubated with [^3H]-nicotine and protein-G-conjugated Sepharose beads (Gammabind-G Sepharose, Pharmacia), which bind IgG in the sera samples. The antibody-bound [^3H]-nicotine was isolated by centrifugation of the beads and was detected by scintillation counting of the beads.

[8] = HPLC analysis of methyl ester hydrolysis of succinylated norcocaine; conditions: 25° C.
[9] = tested on: eukaryotic cells expressing ganglioside GM1; type: cell-based

For C[C@]12N[C@H](Cc3ccccc31)c1ccccc12 [MK-801], the “increase of cocaine LD50” value ([1]; alone) is listed as 1.3 fold and the “increase of cocaine LD50” value ([1]; combined with propanolol) is listed as 1.4 fold.
With CN1[C@H]2CC[C@@H]1[C@@H](C(=O)O)[C@@H](OC(=O)c1ccccc1)C2 [benzoylecgonine, 3β-(Benzoyloxy)-8-methyl-8-azabicyclo[3.2.1]octane-2β-carboxylic acid] the “competition of rat sera” value [2] was “none of the sera tested are able to be competed by benzoylecgonine” and the “inhibition of binding of antibodies to cocaine-HEL” value (anti-cocaine antisera) was “at high concentrations”.
With COC(=O)[C@H]1[C@@H](OC(=O)c2ccccc2)C[C@@H]2CC[C@H]1N2C [cocaine, 3β-(Benzoyloxy)-8-methyl-8-azabicyclo[3.2.1]octane-2β-carboxylic acid methyl ester] the ED50 (rats) was 2.14 ± 0.2 mg/kg, the “time of peak cocaine levels” value (mice; after intranasal administration) was 2 to 5 min and the “time of peak cocaine levels” value (mice; after intravenous injection) was 0.25 min. The “total levels of cocaine in the brains of control mice” value (mice) was 1538 ng/g, the “total levels of cocaine in the brains of control mice” value (mice; iv) was 2260 ng/g and the “published peak plasma levels” value ([3]; in addicts, Ambre 1991, Cone 1995, Cone 1989) was 0.3 to 1.5 µg/mL. The peak plasma concentration [3] was 0.3 to 1 µg/mL, the LD50 ([4]; ip) was 20 mg/kg and the LD50 ([4]; iv) was 3 mg/kg.
For CN1C(=O)CCC1c1cccnc1 (stereo not shown) [cotinine, N-Methyl-2-(3-pyridyl)-5-pyrrolidone], the “competition for antibodies in the sera” value [5] is given as “cannot compete with antibodies in any of the sera except at very high concentrations” and the plasma half life [3] is given as 19 h.
For CNCCCN1c2ccccc2CCc2ccccc21 [desipramine], the “cocaine abstinence rate following treatment” value [6] is given as no more than 70%.
For CN1CCCC1c1cccnc1 (stereo not shown) [nicotine, 1-Methyl-2-(3-pyridyl)pyrrolidine], the “inhibition of [^3H]-nicotine binding to antibodies” value [7] is listed as “completely inhibited the binding”, the plasma half life [3] is listed as “approximately two” and the peak plasma concentration [3] is listed as 0.025 to 0.05 µg/mL.
In the case of COC(=O)[C@H]1[C@@H](OC(=O)c2ccccc2)C[C@@H]2CC[C@H]1N2C(=O)CCC(=O)O [succinylated norcocaine, 3β-(Benzoyloxy)-8-succinoyl-8-azabicyclo[3.2.1]octane-2β-carboxylic acid methyl ester], the “time for 5% degradation” value ([8]; pH 6) is reported as 1.30 years and the “time for 5% degradation” value ([8]; pH 8) is reported as 10.96 days.
For rCTB, the “binding to cells (flow cytometry)” value [9] was “bound to eukaryotic cells expressing ganglioside GM1”.
